Common to all, as to experiment: DTP human tumour cell line panel, 48 h
Experiment [1] deals with CAKI-1 renal.
The test system of experiment [2] is LOX IMVI melanoma.
Experiment [3] concerns NCI-H23 lung.
In experiment [4] the test system is OVCAR-3 ovarian.
The test system of experiment [5] is RPMI-8226 leukemia.
For experiment [6], the system named is SF-268 CNS.
The subject of experiment [7] is SW-620 colon.
The subject of experiment [8] is HS 578T breast.
In experiment [9] the test system is MCF7 breast.
Experiment [10] has as its system PC-3 prostate.
Experiment [11] relates to BT-549 breast.

For 14 compounds, TGI results are on record in PubChem BioAssay (NCI).

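Protocol summary: plate cells (96-well), add compound at 5 concentrations, incubate 48 h, interpolate endpoints linearly. TGI denotes the concentration required for complete inhibition of growth.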 Where a SMILES comes first, the peptide text is derived from it. The star is where a group is joined. Boc = CC(C)(C)OC(=O)*; OBn = c1ccc(CO*)cc1

For orientation: TGI means the concentration giving total growth inhibition. Higher therefore signals less potent growth arrest.

With `COC(=O)C(C(=O)C(=O)Nc1ccc([N+](=O)[O-])cc1)c1nc2cc(C)c(C)cc2[nH]c1=O` (configuration not stated), the TGI in [1], in experiment [2], in [3], in experiment [4], in [5] and in experiment [6] was more than 100 µM in each case. The compound further displayed a TGI in experiment [7] of more than 100 µM.

For `CC(C)C(NC(=O)CNC(=O)C1CCCN1C(=O)C(NC(=O)OC(C)(C)C)C(C)C)C(=O)NCC(=O)OCc1ccccc1` (configuration not stated) (Boc-VPGVG-OBn; configuration not given here), the TGI in experiment [1], in [8], in experiment [2], in experiment [9], in [3] and in [4] was more than 100 µM throughout. Also, the TGI in experiment [10], in [5], in experiment [6] and in experiment [7] was more than 100 µM throughout.

`Nc1ccn(CC(CO)CC(c2ccccc2)P(=O)(O)O)c(=O)n1` (configuration not stated): the TGI in experiment [1], in experiment [2], in experiment [3], in experiment [4], in experiment [5] and in experiment [6] was more than 100 µM throughout. Also, in experiment [7], the TGI is more than 100 µM.

On to `CC(=O)[C@]1(C)[C@H](C)O[C@](C)(CO)[C@H]1O[Si](C)(C)c1ccccc1`, for which the TGI in experiment [1] was 54.2 µM; in experiment [8], more than 100 µM; in experiment [2] it was 44.4 µM; in experiment [9], more than 100 µM; in [3] it was 81 µM; in experiment [4], more than 100 µM. Further, the TGI in experiment [10], in experiment [5], in [6] and in experiment [7] was more than 100 µM in each case.

In the case of `CCOc1ccc(N=Nc2c(-c3ccccc3)nn(C(=O)CC(=O)Nc3cccc(C)c3)c2-c2ccccc2)cc1`, the TGI in [1], in experiment [2], in experiment [3], in experiment [4], in [5] and in [6] was more than 100 µM each time. Besides, in [7], the TGI was more than 100 µM.

`CCOC(=O)NC(C(C(=O)OCC)C(=O)OCC)(C(F)(F)F)C(F)(F)F`: the TGI in experiment [1], in [8], in experiment [2], in [9], in experiment [3] and in experiment [4] was more than 100 µM each time. For the same compound, the TGI in experiment [10], in [5], in experiment [6] and in experiment [7] was more than 100 µM each time.

For the compound `CN(C)C(=O)C(F)(F)C(c1ccc(C(F)(F)F)cc1)C1C(=O)N(C)C(=O)N(C)C1=O` (configuration not stated), the TGI in experiment [11], in experiment [1], in [2], in experiment [9], in [3] and in experiment [4] was more than 100 µM throughout. In addition, the TGI in [10], in experiment [5], in experiment [6] and in [7] was more than 100 µM each time.

Consider `N#Cc1nc(NC(=O)c2ccccc2)sc1N`, for which the TGI in experiment [1], in [2], in experiment [9], in experiment [3], in experiment [4] and in experiment [10] was more than 10 µM each time. The TGI in experiment [5], in experiment [6] and in experiment [7] was more than 10 µM throughout.

With `N#Cc1nc(C2SCCCS2)oc1N`, the TGI in [1], in experiment [8], in experiment [2], in experiment [9], in experiment [10] and in experiment [5] was more than 100 µM each time. Further, the TGI in [6] and in [7] was more than 100 µM each time.

For `CSC1CC2C(CC1(C)SC)C2(C)C` (configuration not stated), the TGI in [1] was more than 100 µM; in experiment [2], more than 100 µM; in experiment [3], more than 100 µM; in experiment [4] it was more than 100 µM; in [5] it was 93.4 µM; in experiment [6], more than 100 µM. In experiment [7], the TGI is more than 100 µM.

Take `COC1CC(n2ccc(=O)[nH]c2=O)OC1CO` (configuration not stated): the total growth inhibition concentration (TGI) in experiment [1], in experiment [2], in experiment [9], in experiment [3], in [4] and in experiment [10] was more than 100 µM in each case. Further, the TGI in experiment [6] and in experiment [7] was more than 100 µM in each case.

In the case of `COc1cc2c(cc1OC)C1(c3ccccc3)ON=C(c3ccccc3)N1CS2` (configuration not stated), the TGI in experiment [1], in experiment [2], in experiment [3], in experiment [4], in experiment [5] and in experiment [6] was more than 100 µM in each case. The compound further came in with a TGI in [7] of more than 100 µM.

With `NC(N)=NCCCC(NCc1c2ccccc2[n+]([O-])c2ccccc12)C(=O)O` (configuration not stated), the TGI was more than 100 µM in experiment [1]; more than 100 µM in experiment [2]; more than 100 µM in experiment [3]; more than 100 µM in experiment [4]; 96.2 µM in experiment [5]; more than 100 µM in experiment [6]. Also, in [7], the TGI was more than 100 µM.

With `CC(=O)NC(CCCOC(C)=O)C(=O)NC(CCCOC(C)=O)C(=O)NC(CCCOC(C)=O)C(=O)NC(Cc1ccc([N+](=O)[O-])cc1)C(=O)NCC(=O)OCc1ccccc1` (configuration not stated), the TGI in experiment [1], in [8], in experiment [2], in experiment [9], in experiment [3] and in [4] was more than 100 µM throughout. The TGI in [10], in experiment [5], in [6] and in [7] was more than 100 µM each time.
